The test system of data set [1] is Escherichia coli. The data set can be described thus: Antibacterial activity against Escherichia coli JW0451 harboring AcrB gene deletion mutant by alamar blue reagent based micro dilution broth assay. The format is functional, organism-based. (Resazurin is reduced to fluorescent resorufin, in cell work by metabolically active cells.)
Data set [2] is described as follows: Ratio of MIC for Escherichia coli ATCC 25922 to MIC for Escherichia coli NR698 harboring imp gene deletion mutant. The class given is functional.
Data set [3] has as its system HepG2. The data set can be described thus: Cytotoxicity against human HepG2 cells at 100 uM after 4 hrs by alamar blue assay. The format is cell-based. The note with it: hepg2, 4 h.
Data set [4] has as its system Escherichia coli. The experiment in a line: Antibacterial activity against Escherichia coli harboring emrB gene deletion mutant by alamar blue reagent based micro dilution broth assay. The format is functional, organism-based.
Data set [5] in a line: Cytotoxicity against HDF at 100 uM after 4 hrs by alamar blue assay. The following applies: human.
The test system of data set [6] is Escherichia coli. The data set can be described thus: Antibacterial activity against Escherichia coli NR698 harboring imp gene deletion mutant by alamar blue reagent based micro dilution broth assay. The format is functional.
For data set [7], the system named is Escherichia coli. The data set can be described thus: Antibacterial activity against Escherichia coli ATCC 25922 by alamar blue reagent based micro dilution broth assay. The format is functional.
For data set [8], the system named is Escherichia coli. The experiment in a line: Antibacterial activity against Escherichia coli harboring acrF gene deletion mutant by alamar blue reagent based micro dilution broth assay. The class given is functional, organism-based.
Data set [9] concerns Escherichia coli. The experiment in a line: Antibacterial activity against Escherichia coli harboring macB gene deletion mutant by alamar blue reagent based micro dilution broth assay. The format is functional, organism-based.
Data set [10] concerns Staphylococcus aureus. The data set can be described thus: microbe, parasite or virus in culture. The following applies: ATCC 43300, 18 h.
In data set [11] the test system is Escherichia coli. The experiment in a line: microbe, parasite or virus in culture.
Data set [12] concerns Escherichia coli. The data set can be described thus: Antibacterial activity against Escherichia coli harboring efflux pump deletion mutant after 8 hrs. The class given is functional.
Data set [13] relates to Escherichia coli. The data set can be described thus: Antibacterial activity against Escherichia coli harboring ompF gene deletion mutant by alamar blue reagent based micro dilution broth assay. The format is functional.
Data set [14] relates to Escherichia coli. The experiment in a line: Antibacterial activity against Escherichia coli harboring ompC gene deletion mutant by alamar blue reagent based micro dilution broth assay. The format is functional.
Data set [15] relates to Escherichia coli. The data set can be described thus: Antibacterial activity against Escherichia coli W4573 after 8 hrs. The format is functional. The note with it: W4573, 8 h.
The subject of data set [16] is Staphylococcus aureus. The experiment in a line: Antibacterial activity against methicillin-resistant Staphylococcus aureus by agar dilution method. The class given is functional. Background: Agar dilution tests growth on a series of plates holding different concentrations.
Data set [17] in a line: Cytotoxicity against human MCF10A cells after 4 hrs by alamar blue assay. The class given is cell-based. The note with it: MCF-10A.
Data set [18] relates to Staphylococcus aureus. The data set can be described thus: Bactericidal activity against Staphylococcus aureus ATCC 43300. The class given is functional, organism-based.
Data set [19] can be described thus: Terminal half life in mouse liver microsomes at 0.5 ug/ml in presence of NADPH by UPLC analysis. The format is ADME. The note with it: read-out: beta t1/2. For orientation: Microsomes from liver hold many membrane-bound enzymes, among them those of drug oxidation.
A further data set deals with Cytochrome P450 2D6 (Homo sapiens, UniProt P10635). The experiment in a line: Inhibition of human CYP2D6 using AMMC as substrate assessed as reduction in 3-[-2-(N,Ndiethylamino)ethyl]-7-hydroxy-4-methylcoumarin hydrochloride metabolite formation incubated for 30 mins by high throughput assay. The following applies: read-out: INH. The class given is ADME.
The nature of data set [20]: Primary phase half life in mouse liver microsomes at 0.5 ug/ml in presence of NADPH by UPLC analysis. The class given is ADME. The following applies: read-out: alphat1/2.
Data set [21] can be described thus: Therapeutic index, ratio of IC50 for human MCF10A cells to MIC for Staphylococcus aureus ATCC 43300. The format is cell-based, MCF-10A. The following applies: read-out: TI.
Data set [22] is described as follows: Therapeutic index, ratio of IC50 for human MCF10 cells to MIC for Staphylococcus aureus ATCC 43300. The class given is cell-based. The following applies: read-out: TI.
Data set [23] can be described thus: Cytotoxicity against HDF after 4 hrs by alamar blue assay. The note with it: Homo sapiens.
A short description of data set [24]: Therapeutic index, ratio of IC50 for human HepG2 cells to MIC for Staphylococcus aureus ATCC 43300. The class given is cell-based. The note with it: read-out: TI.
A short description of data set [25]: Therapeutic index, ratio of IC50 for HDF to MIC for Staphylococcus aureus ATCC 43300. The note with it: human, read-out: TI.
Data set [26] has as its system HepG2. The data set can be described thus: Cytotoxicity against human HepG2 cells after 4 hrs by alamar blue assay. The class given is cell-based. The note with it: HepG2, 4 h.
The next data set has as its target Cytochrome P450 3A4 (Homo sapiens, UniProt P08684). The experiment in a line: Inhibition of human CYP3A4 using BQ as substrate assessed as reduction in 7-hydroxyquinoline metabolite formation incubated for 30 mins by high throughput assay. The format is ADME. The following applies: read-out: INH.

Values after ≈ are worked out from the molar mass of the structure shown. Active and inactive are the calls of the source. The rule behind the calls is not given here. Some results are limits rather than exact numbers.

Chain of Cytochrome P450 2D6 (P10635 whole entry): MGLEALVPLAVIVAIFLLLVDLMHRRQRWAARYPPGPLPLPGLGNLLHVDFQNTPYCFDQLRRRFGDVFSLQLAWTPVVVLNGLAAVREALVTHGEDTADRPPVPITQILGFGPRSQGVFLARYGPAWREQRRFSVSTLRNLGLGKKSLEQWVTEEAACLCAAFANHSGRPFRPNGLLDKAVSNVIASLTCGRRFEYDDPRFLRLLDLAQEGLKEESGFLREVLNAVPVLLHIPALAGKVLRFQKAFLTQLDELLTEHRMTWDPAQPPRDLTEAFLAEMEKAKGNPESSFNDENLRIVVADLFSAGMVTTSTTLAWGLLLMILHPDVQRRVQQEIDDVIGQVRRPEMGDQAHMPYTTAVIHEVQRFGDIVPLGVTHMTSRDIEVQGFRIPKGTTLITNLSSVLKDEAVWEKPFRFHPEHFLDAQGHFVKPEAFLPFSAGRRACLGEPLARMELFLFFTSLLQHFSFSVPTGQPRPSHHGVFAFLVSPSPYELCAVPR
Chain of Cytochrome P450 3A4 (P08684 whole entry): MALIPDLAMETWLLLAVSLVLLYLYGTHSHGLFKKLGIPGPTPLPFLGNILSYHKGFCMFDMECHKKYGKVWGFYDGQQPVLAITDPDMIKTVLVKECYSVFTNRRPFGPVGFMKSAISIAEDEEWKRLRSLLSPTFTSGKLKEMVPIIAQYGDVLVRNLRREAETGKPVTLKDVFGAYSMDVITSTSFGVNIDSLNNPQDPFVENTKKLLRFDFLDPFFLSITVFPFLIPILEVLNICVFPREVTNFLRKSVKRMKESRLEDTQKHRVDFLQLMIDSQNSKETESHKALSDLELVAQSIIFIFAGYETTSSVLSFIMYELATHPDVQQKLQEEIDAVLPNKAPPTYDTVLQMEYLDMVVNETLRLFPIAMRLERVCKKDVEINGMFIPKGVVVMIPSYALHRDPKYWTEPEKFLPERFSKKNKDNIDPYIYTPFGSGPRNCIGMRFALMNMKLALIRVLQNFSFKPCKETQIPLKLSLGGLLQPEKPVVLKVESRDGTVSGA

For the compound `CCc1nc(N)nc(N)c1C#CCc1cc(-c2cccc(C(=O)O)c2)ccc1OC.O=C(O)C(F)(F)F`, the result with Escherichia coli [1], in the data set on Escherichia coli [4], with Escherichia coli [8] and in the data set with Escherichia coli [9] was Active. For the same compound, the Ratio in data set [2] came to 2000. For the same compound, the Activity result (in the data set with HepG2 [3]; in data set [5]) was “Non-toxic” throughout. Further, the values for the MIC against Escherichia coli [6], against Escherichia coli [7] and against Staphylococcus aureus [10] were 0.0391 mg/L, above 20 mg/L and 0.625 mg/L, respectively.

In the case of `COc1cc(Cc2cnc(N)nc2N)cc(OC)c1OC` [TRIMETHOPRIM], the MIC against Escherichia coli [6] was 0.0098 mg/L (≈ 0.0338 µM); with Escherichia coli [7], 0.312 mg/L (≈ 1.08 µM); against Escherichia coli [11], 0.312 mg/L (≈ 1.08 µM).

For orientation: MIC50 means the lowest concentration that inhibits either 50% of growth or 50% of the strains tested, depending on the study. Lower therefore signals higher susceptibility. Broadly, the MIC90 is the lowest concentration that inhibits either 90% of growth or 90% of the strains tested, depending on the study. In the case of `CN(Cc1cnc2nc(N)nc(N)c2n1)c1ccc(C(=O)N[C@@H](CCC(=O)O)C(=O)O)cc1` [METHOTREXATE], the MIC against Escherichia coli [12] was 64 µM (≈ 29.1 µg/mL); with Escherichia coli [13], at least 40 mg/L; against Escherichia coli [14], at least 40 mg/L; in the data set on Escherichia coli [6], 40 mg/L (≈ 88 µM); in the data set on Escherichia coli [7], above 40 mg/L; against Escherichia coli [15] it was 1000 µM (≈ 454 µg/mL). In the data set with Staphylococcus aureus [10], the MIC was above 40 mg/L. This compound had an MIC50 in the data set with Staphylococcus aureus [16] of 20 mg/L (≈ 44 µM). Besides, the MIC90 in the data set on Staphylococcus aureus [16] was 100 mg/L (≈ 220 µM).

`CCc1nc(N)nc(N)c1C#C[C@H](C)c1cc(OC)cc(-c2ccc(C(=O)O)cc2)c1`: the outcome in the data set on Escherichia coli [1], with Escherichia coli [4], in the data set on Staphylococcus aureus [18], with Escherichia coli [8] and in the data set with Escherichia coli [9] was Active. In data set [17], the IC50 is above 100 µM. Also, the Activity result (in the data set on HepG2 [3]; in data set [5]) was “Non-toxic” each time. The MIC against Escherichia coli [6] was determined as 0.0024 mg/L (≈ 0.00576 µM); in the data set with Escherichia coli [7], 10 mg/L (≈ 24 µM); with Staphylococcus aureus [10], 0.0098 mg/L (≈ 0.0235 µM).

In the case of `CCc1nc(N)nc(N)c1C#CCc1cc(-c2ccc(C(=O)O)cc2)ccc1OC`, the outcome in the data set with Escherichia coli [1], in the data set with Escherichia coli [4], with Escherichia coli [8] and in the data set with Escherichia coli [9] was Active. For the same compound, the Ratio in data set [2] was determined as 2000. Moreover, the half-life at 0.5 ug/ml is 1.45 h in data set [19] and 1.65 h in data set [20]. Besides, the IC50 in data set [17] was above 100 µM; at Cytochrome P450 2D6, above 50 µM; in data set [23], above 500 µM; in the data set on HepG2 [26], above 500 µM; at Cytochrome P450 3A4, above 50 µM. The selectivity ratio in data set [21], in [22], in data set [24] and in data set [25] was above 500000 throughout. In addition, the results for the MIC against Escherichia coli [6], in the data set on Escherichia coli [7] and against Staphylococcus aureus [10] were 0.0098 mg/L (≈ 0.0244 µM), above 20 mg/L and 0.0195 mg/L (≈ 0.0485 µM), respectively.

`CC(=O)O.CCc1nc(N)nc(N)c1C#C[C@@H](C)c1cc(-c2ccc(C(=O)O)cc2)ccc1OC`: the outcome in the data set on Escherichia coli [1], in the data set on Escherichia coli [4], in the data set on Escherichia coli [8] and in the data set on Escherichia coli [9] was Active. In addition, the IC50 in data set [17] was above 100 µM. The Activity entry (with HepG2 [3]; in data set [5]) was “Non-toxic” each time. The results for the MIC in the data set on Escherichia coli [6], against Escherichia coli [7] and against Staphylococcus aureus [10] were 0.0012 mg/L, 20 mg/L and 0.0195 mg/L, respectively.

As to `CC(=O)O.CCc1nc(N)nc(N)c1C#C[C@H](C)c1cc(-c2ccc(C(=O)O)cc2)ccc1OC`, the result in the data set with Escherichia coli [1], in the data set with Escherichia coli [4], in the data set on Escherichia coli [8] and in the data set on Escherichia coli [9] was Active. This compound gave an IC50 in data set [17] above 100 µM. The Activity entry (with HepG2 [3]; in data set [5]) was “Non-toxic” throughout. Besides, the MIC in the data set with Escherichia coli [6] was 0.0391 mg/L; in the data set on Escherichia coli [7] it was above 20 mg/L; in the data set with Staphylococcus aureus [10], 0.625 mg/L.

For `CCc1nc(N)nc(N)c1C#CCc1cc(OC)cc(-c2ccc(C(=O)O)cc2)c1.O=C(O)C(F)(F)F`, the result in the data set on Escherichia coli [1], in the data set with Escherichia coli [4], in the data set with Staphylococcus aureus [18], in the data set on Escherichia coli [8] and in the data set on Escherichia coli [9] was Active. In data set [17], this compound came in with an IC50 above 100 µM. Moreover, the Activity entry (in the data set with HepG2 [3]; in data set [5]) was “Non-toxic” each time. For the same compound, the values for the MIC against Escherichia coli [6], with Escherichia coli [7] and in the data set on Staphylococcus aureus [10] were 0.0049 mg/L, above 20 mg/L and 0.0195 mg/L, respectively.

As to `CCc1nc(N)nc(N)c1C#C[C@@H](C)c1cc(OC)cc(-c2ccc(C(=O)O)cc2)c1`, the outcome in the data set with Escherichia coli [1], in the data set on Escherichia coli [4], in the data set with Staphylococcus aureus [18], with Escherichia coli [8] and in the data set with Escherichia coli [9] was Active. In [17], this compound came in with an IC50 above 100 µM. Moreover, the Activity entry (in the data set with HepG2 [3]; in [5]) was “Non-toxic” in each case. Further, the MIC in the data set with Escherichia coli [6] is 0.0024 mg/L (≈ 0.00576 µM); in the data set with Escherichia coli [7], 10 mg/L (≈ 24 µM); against Staphylococcus aureus [10], 0.0098 mg/L (≈ 0.0235 µM).

Regarding `CCc1nc(N)nc(N)c1C#CCc1cc(-c2ccccc2C(=O)O)ccc1OC`, the outcome in the data set with Escherichia coli [1], in the data set with Escherichia coli [4], with Escherichia coli [8] and in the data set with Escherichia coli [9] was Active. In data set [2], the Ratio worked out at 2000. Also, the Activity result (with HepG2 [3]; in data set [5]) was “Non-toxic” throughout. Further, the MIC against Escherichia coli [6] is 20 mg/L (≈ 49.7 µM); in the data set on Escherichia coli [7], above 32 mg/L; in the data set on Staphylococcus aureus [10], above 20 mg/L.

The values are drawn from ChEMBL document CHEMBL3826924, “Charged Nonclassical Antifolates with Activity Against Gram-Positive and Gram-Negative Pathogens” (ACS Med Chem Lett, 2016).
